According to ChEMBL document CHEMBL3046649, “Fungitoxic and Phytotoxic Activities of Cinnamic Acid Esters and Amides” (2000):

Tests used:
Athelia rolfsii [1] = experiment: Fungitoxic activity against Athelia rolfsii assessed as mycelial growth inhibition at 10 ppm after 4 to 5 days by agar dilution method; format: functional; conditions: Agroathelia rolfsii; read-out: GI
Athelia rolfsii [2] = experiment: microbe, parasite or virus in culture; format: functional; conditions: Agroathelia rolfsii, read-out: GI
Description: Fungitoxic activity against Athelia rolfsii assessed as mycelial growth inhibition at 100 ppm after 4 to 5 days by agar dilution method

[3] = test system: Brassica rapa subsp. chinensis; experiment: whole plant or invertebrate; format: functional; conditions: 72 h, read-out: GI
Description: Phytotoxicity against Brassica rapa subsp. chinensis assessed as growth inhibition of hypocotyl at 100 ppm treated to seeds after 3 days

Pythium [4] = experiment: Fungitoxic activity against Pythium sp. assessed as mycelial growth inhibition at 10 ppm after 4 to 5 days by agar dilution method; conditions: read-out: GI
[5] = test system: Brassica rapa subsp. chinensis; experiment: whole plant or invertebrate; format: functional; conditions: 72 h, read-out: GI; remark: listed apart in the source
Description: Phytotoxicity against Brassica rapa subsp. chinensis assessed as growth inhibition of radicle at 100 ppm treated to seeds after 3 days

Pythium [6] = experiment: microbe, parasite or virus in culture; format: functional; conditions: read-out: GI
Description: Fungitoxic activity against Pythium sp. assessed as mycelial growth inhibition at 100 ppm after 4 to 5 days by agar dilution method

Compound	inhibition of growth at 10 ppm (Athelia rolfsii [1])	inhibition of growth at 100 ppm (Athelia rolfsii [2])	inhibition of growth at 100 ppm [3]	inhibition of growth at 10 ppm (Pythium [4])	inhibition of growth at 100 ppm [5]	inhibition of growth at 100 ppm (Pythium [6])
CCC(C)NC(=O)/C=C/c1ccc(C(C)C)cc1 (centres undefined) [N-SEC-BUTYL-3-(4-ISOPROPYLPHENYL)ACRYLAMIDE]	33%	84%	29%	36%	46%	73%
CCC(C)NC(=O)/C=C/c1ccccc1 (centres undefined) [N-SEC-BUTYLCINNAMAMIDE]	35%	95%	56%	0%	77%	47%
CC(C)(C)NC(=O)/C=C/c1ccccc1 [N-TERT-BUTYLCINNAMAMIDE]	26%	92%	34%	14%	73%	71%
CCCCCOC(=O)/C=C/c1ccc(Cl)cc1Cl [PENTYL 3-(2,4-DICHLOROPHENYL)ACRYLATE]	14%	75%	22%	9%	0%	43%
CCCCCOC(=O)/C=C/c1ccc(Cl)cc1 [PENTYL 3-(4-CHLOROPHENYL)ACRYLATE]	20%	82%	27%	17%	22%	58%
CCCCCOC(=O)/C=C/c1ccc(C(C)C)cc1 [PENTYL 3-(4-ISOPROPYLPHENYL)ACRYLATE]	13%	79%	29%	3%	0%	51%
O=C(/C=C/c1ccc(Cl)cc1Cl)OCCc1ccccc1 [PHENETHYL 3-(2,4-DICHLOROPHENYL)ACRYLATE]	0%	79%	32%	21%	0%	63%
O=C(/C=C/c1ccc(Cl)cc1)OCCc1ccccc1 [PHENETHYL 3-(4-CHLOROPHENYL)ACRYLATE]	9%	84%	36%	13%	31%	60%
CC(C)c1ccc(/C=C/C(=O)OCCc2ccccc2)cc1 [PHENETHYL 3-(4-ISOPROPYLPHENYL)ACRYLATE]	10%	70%	36%	13%	0%	49%
CCCOC(=O)/C=C/c1ccc(Cl)cc1Cl [PROPYL 3-(2,4-DICHLOROPHENYL)ACRYLATE]	32%	84%	41%	14%	79%	77%
CCCOC(=O)/C=C/c1ccc(Cl)cc1 [PROPYL 3-(4-CHLOROPHENYL)ACRYLATE]	41%	97%	40%	8%	78%	87%
CCCOC(=O)/C=C/c1ccc(C(C)C)cc1 [PROPYL 3-(4-ISOPROPYLPHENYL)ACRYLATE]	43%	89%	8%	13%	5%	68%
CCCOC(=O)/C=C/c1ccccc1 [PROPYL CINNAMATE]	40%	86%	31%	18%	7%	95%
CCC(C)OC(=O)/C=C/c1ccccc1 (centres undefined) [SEC-BUTYL CINNAMATE]	40%	70%	18%	21%	20%	69%
